# Experimental data taken from patent US4959363A, “Quinolonecarboxamide compounds, their preparation and use as antivirals” (Sterling Drug Inc., priority 1989, dated 1990).
# Legend:
# [1] = In vitro maximum tolerated dose (MTL), Vero cells; format: cell-based, African Green Monkey; details: monkey, In Vitro
# [2] = design: species or system albino mice; details: mouse
# herpes simplex virus = test: In Vivo - Intravaginal Herpes Virus Infection in Mice; design: species or system albino mice; details: Mus musculus, 336 h, oral or intraperitoneal, b.i.d. 5 days, NA = Not active at dose levels tested, read-out: In Vivo MED (Minimum effective dose)
# Method: In Vivo - Intravaginal Herpes Virus Infection in Mice
# Approximately 1 hr. prior to infection, the vaginas of 15 gm albino mice were swabbed with cotton saturated with 0.1 N NaOH to remove vaginal secretions and to irritate the vaginal mucosa slightly. At the proper time, 0.05 ml of an appropriate dose of herpes simplex virus was placed deep in the vagina. Starting 2.5 hrs. prior to infection, the mice were medicated either orally or intraperitoneally. Medication was continued daily for a total of 5 days on a b.i.d. regimen. The test was terminated after 14 days. A comparison of the number of surviving mice and/or extension of survival was made at the end of the test. The criterion for activity was a statistically significant extension of the average survival time of the test group over that of the control mice in two experiments.
# [3] = test system: Vero (African Green Monkey Kidney) cells; test: In vitro maximum tolerated dose (MTL), Vero cells; format: cell-based
compound,measurement,setting,value
"NC(=O)c1cn(-c2cccc(F)c2)c2cc(-c3ccncc3)ccc2c1=O [Example 46e, 1,4-Dihydro-1-(3-fluorophenyl)-4-oxo-7-(4-pyridinyl)3-quinolinecarboxamide]",MNTC at 72 h,[1]; vero cells,> 6.25 µg/mL
same,In Vivo MTL (Maximum tolerated dose),[2],50
same,minimal effective dose,herpes simplex virus,25 to 50 mg/kg/day
"1,4-Dihydro-1-(4-fluorophenyl)-7-(3-methyl-5-thiazolyl)-4-oxo-3-quinolinecarboxamide [Example 37d]",In Vitro MTL (Maximum tolerated dose),"[3]; monkey, vero cells, 72 h",> 100
same,In Vivo MTL (Maximum tolerated dose),[2],> 100
"CCn1cc(C(=O)NC)c(=O)c2ccc(-c3ccncc3)cc21 [Example 28, 1-Ethyl-1,4-dihydro-N-methyl-4-oxo-7-(4-pyridinyl)-3quinolinecarboxamide]",MNTC at 72 h,[1]; vero cells,> 25 µg/mL
same,In Vivo MTL (Maximum tolerated dose),[2],50
same,minimal effective dose,herpes simplex virus,50 mg/kg/day
"NC(=O)c1cn(-c2ccc(Cl)cc2)c2cc(-c3ccncc3)ccc2c1=O [Example 32, 1-(4-Chlorophenyl)-1,4-dihydro-7-(4-pyridinyl)-4-oxo-3quinolinecarboxamide]",MNTC at 72 h,[1]; Vero cells,> 25 µg/mL
same,minimal effective dose,herpes simplex virus,50 mg/kg/day
"NC(=O)c1cn(-c2ccc(Cl)c(Cl)c2)c2cc(-c3ccncc3)ccc2c1=O [Example 14, 1-(3,4-Dichlorophenyl)-1,4-dihydro-4-oxo-7-(4-pyridinyl)-3-quinolinecarboxamide]",MNTC at 72 h,[1]; vero cells,> 12.5 µg/mL
same,In Vivo MTL (Maximum tolerated dose),[2],100
same,minimal effective dose,herpes simplex virus,50 mg/kg/day
"NC(=O)c1cn(-c2ccccc2)c2cc(-c3ccncc3)ccc2c1=O [Example 45e, 1,4-Dihydro-4-oxo-1-phenyl-7-(4-pyridinyl)-3-quinolinecarboxamide]",In Vitro MTL (Maximum tolerated dose),"[3]; In Vitro, Vero cells, 4320 min",> 6.25
same,In Vivo MTL (Maximum tolerated dose),[2],50
same,minimal effective dose,herpes simplex virus,25 mg/kg/day
"Cn1c(O)c(C(N)=O)c(=O)c2ccc(-c3ccncc3)cc21 [Example 39b, 1,4-Dihydro-2-hydroxy-1-methyl-4-oxo-7-(4-pyridinyl)3-quinolinecarboxamide]",MNTC at 72 h,[1]; vero cells,3.1 µg/mL
same,In Vivo MTL (Maximum tolerated dose),[2],150
same,minimal effective dose,herpes simplex virus,150 to 200 mg/kg/day
"CCN(CC)CNC(=O)c1cn(-c2ccc(F)cc2)c2cc(-c3ccncc3)ccc2c1=O [Example 3, N-(Diethylaminomethyl)-1-(4-fluorophenyl)-1,4-dihydro-4-oxo-7-(4-pyridinyl)-3-quinolinecarboxamide]",MNTC at 72 h,[1]; vero cells,12.5 µg/mL
same,In Vivo MTL (Maximum tolerated dose),[2],100
same,minimal effective dose,herpes simplex virus,50 mg/kg/day
"NC(=O)c1cn(-c2ccc(F)cc2)c2cc(-c3cc[n+]([O-])cc3)ccc2c1=O [Example 2, 1-(4-Fluorophenyl)-1,4-dihydro-4-oxo-7-(N-oxide-4-pyridinyl)-3-quinolinecarboxamide]",MNTC at 72 h,[1]; vero cells,> 12.5 µg/mL
same,In Vivo MTL (Maximum tolerated dose),[2],100
same,minimal effective dose,herpes simplex virus,25 mg/kg/day
"CCn1c(=O)c(C(N)=O)c(O)c2ccc(-c3ccncc3)cc21 [Example 38c, 1-Ethyl-1,2-dihydro-4-hydroxy-2-oxo-7-(4-pyridinyl)-3quinolinecarboxamide]",MNTC at 72 h,[1]; vero cells,> 12.5 µg/mL
same,In Vivo MTL (Maximum tolerated dose),[2],100
same,minimal effective dose,herpes simplex virus,100 to 200 mg/kg/day
"NC(=O)c1cn(-c2ccc(Br)cc2)c2cc(-c3ccncc3)ccc2c1=O [Example 31, 1-(4-Bromophenyl)-1,4-dihydro-7-(4-pyridinyl)-4-oxo-3quinolinecarboxamide]",MNTC at 72 h,[1]; vero cells,> 12.5 µg/mL
same,In Vivo MTL (Maximum tolerated dose),[2],50
same,minimal effective dose,herpes simplex virus,50 mg/kg/day
"NC(=O)c1cn(-c2ccc(F)cc2)c2cc(-c3ccncc3)ccc2c1=O [Example 1h, 1-(4-fluorophenyl)-1,4-dihydro-4-oxo-7-(4-pyridinyl)-3-quinolinecarboxamide]",MNTC at 72 h,[1]; vero cells,> 3.1 µg/mL
same,In Vivo MTL (Maximum tolerated dose),[2],50-100
same,minimal effective dose,herpes simplex virus,12.5 to 25 mg/kg/day
"NC(=O)c1cn(-c2ccncc2)c2cc(-c3ccncc3)ccc2c1=O [Example 10, 1,4-Dihydro-4-oxo-1,7-di(4-pyridinyl)-3-quinolinecarboxamide]",MNTC at 72 h,[1]; vero cells,> 200 µg/mL
same,In Vivo MTL (Maximum tolerated dose),[2],75
same,minimal effective dose,herpes simplex virus,50 to 75 mg/kg/day
"CCn1cc(C(N)=O)c(=O)c2ccc(-c3ccncc3)cc21 [Example 6, 1-Ethyl-1,4-dihydro-4-oxo-7-(4-pyridinyl)-3-quinolinecarboxamide]",MNTC at 72 h,[1]; vero cells,12.5 µg/mL
same,In Vivo MTL (Maximum tolerated dose),[2],50
same,minimal effective dose,herpes simplex virus,50 mg/kg/day
"NC(=O)c1c(N)n(-c2ccc(F)cc2)c2cc(-c3ccncc3)ccc2c1=O [Example 41c, 2-Amino-1,4-dihydro-1-(4-fluorophenyl)-4-oxo-7-(4-pyriridinyl)-3-quinolinecarboxamide]",MNTC at 72 h,[1]; vero cells,> 100 µg/mL
same,In Vivo MTL (Maximum tolerated dose),[2],100
same,minimal effective dose,herpes simplex virus,50 mg/kg/day
